Reference: PubChem BioAssay (NCI)
Where “and” joins values, the source holds several entries; their conditions need not be identical. Equal entries are not always repeated.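 Tested at 5 concentrations; 48 h exposure; 96-well plates; endpoints linearly interpolated, else capped at highest concentration. Abbreviation: GI50, concentration required for 50% inhibition of growth. Definition used: TGI = concentration required for complete inhibition of growth.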

Assays:
Assay in all cases: growth of human tumour cells (NCI), 48 h
A498 renal = tested on: A498 renal
RXF 393 renal = tested on: RXF 393 renal
U251 CNS = tested on: U251 CNS
HS 578T breast = tested on: HS 578T breast
HT29 colon = tested on: HT29 colon
SNB-19 CNS = tested on: SNB-19 CNS
RPMI-8226 leukemia = tested on: RPMI-8226 leukemia
UO-31 renal = tested on: UO-31 renal
SF-295 CNS = tested on: SF-295 CNS
MALME-3M melanoma = tested on: MALME-3M melanoma

| SMILES | GI50 (A498 renal) [µM] | TGI (A498 renal) [µM] | GI50 (RXF 393 renal) [µM] | TGI (RXF 393 renal) [µM] | GI50 (U251 CNS) [µM] | TGI (U251 CNS) [µM] | GI50 (HS 578T breast) [µM] | TGI (HS 578T breast) [µM] | GI50 (HT29 colon) [µM] | TGI (HT29 colon) [µM] | GI50 (SNB-19 CNS) [µM] | TGI (SNB-19 CNS) [µM] | GI50 (RPMI-8226 leukemia) [µM] | TGI (RPMI-8226 leukemia) [µM] | GI50 (UO-31 renal) [µM] | TGI (UO-31 renal) [µM] | GI50 (SF-295 CNS) [µM] | TGI (SF-295 CNS) [µM] | GI50 (MALME-3M melanoma) | TGI (MALME-3M melanoma) [µM] |
| --- | --- | --- | --- | --- | --- | --- | --- | --- | --- | --- | --- | --- | --- | --- | --- | --- | --- | --- | --- | --- |
| CN1CCN(Cc2ccc(NC(=O)c3cncc(C#Cc4cnc(N)c5ccc(F)cc45)c3)cc2C(F)(F)F)CC1 | 0.902 | 3.92 | 0.826 | 2.73 | 2.14 | 6.56 | 1.17 | 12.2 | 0.956 | 4.14 | 4.39 | 8.96 | 1.27 | 26.2 | 1.15 | 4.51 | 2.9 | 7.35 | 1.08 µM | 3.93 |
| O=[N+]([O-])c1ccc2[nH]cc(-c3c4ccsc4cc4[nH]c5ccc([N+](=O)[O-])cc5c34)c2c1 | 0.726 | 3.13 | 0.592 | 1.85 | 1.1 | 16.6 | 0.824 | 5.49 | 1.21 | 12.5 | 1.32 | 9.13 | 1.04 | 5.1 | 0.827 | 5.14 | 0.629 | 3.09 | 0.898 µM | 9.44 |
| O=c1ccn(C2OC(CO)C(O)C2O)c(=O)[nH]1 (configuration not stated) | – | > 1000 | > 1000 | > 1000 | > 1000 | > 1000 | > 1000 | > 1000 | > 1000 | > 1000 | > 1000 | > 1000 | > 1000 | > 1000 | – | – | > 1000 | > 1000 | 740 µM and > 10 µM | > 1000 |
| CCCCNc1nc(NC(C)(C)C)nc(NC(C)(C)C)n1 | 2.98 | 50.4 | 8.07 | 76.9 | 5.92 | 36.7 | 21.1 | > 100 | 2.37 | > 100 | 17.6 | > 100 | 1.4 | > 100 | 7.41 | > 100 | 6.03 | > 100 | 49.4 µM | > 100 |
| COc1cc2nc(-c3ccc(C(F)(F)F)cc3)cc(OCCCN3CCOCC3)c2cc1OC | 1.51 | 4.52 | 0.706 | 3.65 | 1.4 | 14.3 | 2.25 | 9.24 | 0.54 | 15.7 | 2.91 | 13.6 | – | – | 1.77 | 7.3 | 0.349 | 1.68 | 1.38 µM | 3.77 |
| Nc1nc(-c2cccc([N+](=O)[O-])c2)c(Br)c(=O)[nH]1 | – | > 100 | – | > 100 | – | > 100 | – | > 100 | – | > 100 | – | > 73 | – | > 100 | – | > 100 | – | > 66.6 | – | – |
| C=CCn1c(C)nc2cc(Nc3nc(Nc4ccc5nc(C)n(CC=C)c5c4)c4ccccc4n3)ccc21 | 1.46 | 2.87 | 0.354 | 1.37 | – | – | 2.02 | 5.22 | 0.19 | 0.348 | – | – | 1.24 | 3.93 | 1.4 | 2.74 | 1.19 | 2.56 | – | – |
| CN(C)CCNc1nc2ccccc2c2c1c1c(n2Cc2ccccc2)-c2ccccc2C1=O | 14.1 | 28.9 | 11.5 | 37.6 | 14.4 | 29.2 | 11.3 | 31.5 | 6.92 | 22.2 | 16.4 | 33.8 | 2.78 | 17.7 | 14.3 | 35.4 | 9.33 | 24.9 | – | – |
| COc1cc(OC2OC(C)C(O)C(O)C2O)cc2oc(-c3ccc(O)cc3)c(CC=C(C)C)c(=O)c12 (configuration not stated) | 29.8 | 84.2 | 20.3 | 64.6 | – | – | 24 | > 100 | – | – | 15.3 | 39.2 | 9.02 | 26.6 | 16.2 | 64.6 | 33.9 | > 100 | 15.5 µM | 55.5 |
| COc1cc(-c2nc3ccc(C)cc3[nH]2)ccc1OCC(=O)N=Nc1c(O)[nH]c2ccccc12 | 2.36 | 7.46 | 1.65 | 3.17 | – | – | 2 | 4.77 | – | – | 1.83 | 3.51 | – | – | 12.5 | 96.4 | 1.94 | 3.82 | 1.68 µM | 3.18 |
| O=C(Oc1ccc(O)c2c(=O)n3c(cc12)[nH]c1ccccc13)c1ccccc1 | 20.9 | 42.4 | – | 0.505 | 10.1 | 27.4 | 41.1 | > 100 | 33.5 | > 100 | 37.7 | > 100 | 11.8 | 51.4 | 2.19 | 10.1 | 40.8 | > 100 | – | – |
| CCCCCCNC(=O)C1=C(C)NC(C)=C(C(=O)NCCCCCC)C1 | – | > 100 | – | > 100 | – | > 100 | – | > 100 | – | > 100 | – | > 100 | – | > 100 | – | > 100 | – | > 100 | – | – |
